Data on 4 molecules can be found in ChEMBL document CHEMBL4359892, “Discovery of novel indolylarylsulfones as potent HIV-1 NNRTIs via structure-guided scaffold morphing” (Eur J Med Chem, 2019).

The structures appear in SMILES notation.

Data set [1] can be described thus: Selectivity index, ratio of CC50 for human MT4 cells to EC50 for antiviral activity against HIV IIIB. It counts as toxicity. The note with it: read-out: Ratio CC50/EC50.
Data set [2] deals with Human immunodeficiency virus 1. The data set is described as follows: Antiviral activity against drug resistant HIV-1 RES056 harboring reverse transcriptase K103N/Y181C double mutant infected in human MT4 cells assessed as reduction in virus-induced cytopathic effect incubated for 5 days by MTT assay. The data set is classed as functional, organism-based. Particulars: Human immunodeficiency virus 1, RES056, MT4, 120 h. (In general: Damage to the host cells serves as the signal in cytopathic effect assays.)

Data set [3] in a line: Cytotoxicity against human MT4 cells assessed as reduction in cell viability incubated for 5 days by MTT assay. The data set is classed as cell-based.
Data set [4] has as its system Human immunodeficiency virus 1. The data set is described as follows: Potency index, ratio of EC50 of AZT to EC50 of compound for antiviral activity against HIV-1 3B infected in human MT4 cells assessed as reduction in virus-induced cytopathic effect incubated for 5 days by MTT assay. It counts as functional.
In data set [5] the test system is Human immunodeficiency virus 1. Briefly: Antiviral activity against HIV-1 3B infected in human MT4 cells assessed as reduction in virus-induced cytopathic effect incubated for 5 days by MTT assay. Particulars: Human immunodeficiency virus 1, 3B, MT4, 120 h. It counts as functional, organism-based.
In data set [6] the target is Human immunodeficiency virus type 1 reverse transcriptase (Human immunodeficiency virus 1, UniProt Q72547). Briefly: Inhibition of HIV1 reverse transcriptase assessed as inhibition of biotin-dUTP incorporation into template incubated for 1 hr by ELISA.
Data set [7] can be described thus: Selectivity index, ratio of CC50 for human MT4 cells to EC50 for antiviral activity against HIV RES056. It counts as toxicity. The note with it: read-out: Ratio CC50/EC50.
Data set [8] deals with Human immunodeficiency virus 1. Briefly: Potency index, ratio of EC50 of NVP to EC50 of compound for antiviral activity against HIV-1 3B infected in human MT4 cells assessed as reduction in virus-induced cytopathic effect incubated for 5 days by MTT assay. It counts as functional.
A short description of data set [9]: Sub-acute toxicity in Kunming mouse assessed as heart damage at 50 mg/kg, po administered once every other day for 14 days measured on day 14 by HE-staining based assay. It counts as organism-based. Particulars: in vivo, 336 h.
Data set [10] in a line: Sub-acute toxicity in Kunming mouse assessed as lungs damage at 50 mg/kg, po administered once every other day for 14 days measured on day 14 by HE-staining based assay. Particulars: in vivo, 336 h. It counts as organism-based.
Data set [11] is described as follows: Sub-acute toxicity in Kunming mouse assessed as effect on anorexia at 50 mg/kg, po administered once every other day for 14 days. It counts as organism-based. Particulars: in vivo, 336 h.
Data set [12] has as its system Human immunodeficiency virus 1. Briefly: Antiviral activity against drug resistant HIV-1 harboring reverse transcriptase Y181C mutant infected in human MT4 cells assessed as reduction in virus-induced cytopathic effect incubated for 5 days by MTT assay. The data set is classed as functional, organism-based. Particulars: Human immunodeficiency virus 1, MT4, 120 h.

A short description of data set [13]: Acute toxicity in Kunming mouse assessed as effect on animal death at 1000 mg/kg, ig administered as single dose and observed every day for 1 week. It counts as organism-based. The note with it: in vivo, po, 168 h.
Data set [14] is described as follows: Sub-acute toxicity in Kunming mouse assessed as increase in body weight at 50 mg/kg, po administered once every other day for 14 days. It counts as organism-based. The note with it: in vivo, 336 h.
The nature of data set [15]: Sub-acute toxicity in Kunming mouse assessed as spleen damage at 50 mg/kg, po administered once every other day for 14 days measured on day 14 by HE-staining based assay. It counts as organism-based. The note with it: in vivo, 336 h.
In data set [16] the test system is Human immunodeficiency virus 1. The data set is described as follows: Antiviral activity against drug resistant HIV-1 harboring reverse transcriptase Y188L mutant infected in human MT4 cells assessed as reduction in virus-induced cytopathic effect incubated for 5 days by MTT assay. It counts as functional, organism-based. The note with it: Human immunodeficiency virus 1, MT4, 120 h.

The test system of data set [17] is Human immunodeficiency virus 1. Briefly: Antiviral activity against drug resistant HIV-1 harboring reverse transcriptase E138K mutant infected in human MT4 cells assessed as reduction in virus-induced cytopathic effect incubated for 5 days by MTT assay. It counts as functional, organism-based. The note with it: Human immunodeficiency virus 1, MT4, 120 h.
Data set [18] in a line: Sub-acute toxicity in Kunming mouse assessed as liver damage at 50 mg/kg, po administered once every other day for 14 days measured on day 14 by HE-staining based assay. It counts as organism-based. Particulars: in vivo, 336 h.
Data set [19] can be described thus: Acute toxicity in Kunming mouse assessed as effect on lethargy at 1000 mg/kg, ig administered as single dose and observed every day for 1 week. The data set is classed as organism-based. Particulars: in vivo, po, 168 h.
Data set [20] can be described thus: Acute toxicity in Kunming mouse assessed as effect on ruffled fur at 1000 mg/kg, ig administered as single dose and observed every day for 1 week. It counts as organism-based. The note with it: in vivo, po, 168 h.
The nature of data set [21]: Sub-acute toxicity in Kunming mouse assessed as effect on animal growth at 50 mg/kg, po administered once every other day for 14 days. The data set is classed as organism-based. Particulars: in vivo, 336 h.
Data set [22] has as its system Human immunodeficiency virus 1. The data set is described as follows: Antiviral activity against drug resistant HIV-1 harboring reverse transcriptase F227L/V106A double mutant infected in human MT4 cells assessed as reduction in virus-induced cytopathic effect incubated for 5 days by MTT assay. The data set is classed as functional, organism-based. The note with it: Human immunodeficiency virus 1, MT4, 120 h.

Data set [23] is described as follows: Acute toxicity in Kunming mouse assessed as effect on body weight gain at 1000 mg/kg, ig administered as single dose and observed every day for 1 week. The data set is classed as organism-based. Particulars: in vivo, po, 168 h.
Data set [24] relates to Human immunodeficiency virus 1. Briefly: Antiviral activity against drug resistant HIV-1 harboring reverse transcriptase L100I mutant infected in human MT4 cells assessed as reduction in virus-induced cytopathic effect incubated for 5 days by MTT assay. It counts as functional, organism-based. The note with it: Human immunodeficiency virus 1, MT4, 120 h.
Data set [25] in a line: Sub-acute toxicity in Kunming mouse assessed as effect on clonic convulsion at 50 mg/kg, po administered once every other day for 14 days. The data set is classed as organism-based. Particulars: in vivo, 336 h.
Data set [26] can be described thus: Acute toxicity in Kunming mouse assessed as effect on anorexia at 1000 mg/kg, ig administered as single dose and observed every day for 1 week. The data set is classed as organism-based. Particulars: in vivo, po, 168 h.
The nature of data set [27]: Sub-acute toxicity in Kunming mouse assessed as effect on lethargy at 50 mg/kg, po administered once every other day for 14 days. The data set is classed as organism-based. The note with it: in vivo, 336 h.
Data set [28] can be described thus: Sub-acute toxicity in Kunming mouse assessed as effect on ruffled fur at 50 mg/kg, po administered once every other day for 14 days. The data set is classed as organism-based. Particulars: in vivo, 336 h.
Data set [29] can be described thus: Sub-acute toxicity in Kunming mouse assessed as kidney damage at 50 mg/kg, po administered once every other day for 14 days measured on day 14 by HE-staining based assay. It counts as organism-based. The note with it: in vivo, 336 h.
Data set [30] in a line: Acute toxicity in Kunming mouse assessed as effect on clonic convulsion at 1000 mg/kg, ig administered as single dose and observed every day for 1 week. It counts as organism-based. Particulars: in vivo, po, 168 h.
Data set [31] deals with Human immunodeficiency virus 1. Briefly: Antiviral activity against drug resistant HIV-1 harboring reverse transcriptase K103N mutant infected in human MT4 cells assessed as reduction in virus-induced cytopathic effect incubated for 5 days by MTT assay. The data set is classed as functional, organism-based. The note with it: Human immunodeficiency virus 1, MT4, 120 h.
Data set [32] is described as follows: Sub-acute toxicity in Kunming mouse assessed as effect on animal death at 50 mg/kg, po administered once every other day for 14 days. The note with it: in vivo, 336 h. The data set is classed as organism-based.
Data set [33] can be described thus: Acute toxicity in Kunming mouse assessed as effect on animal growth at 1000 mg/kg, ig administered as single dose and observed every day for 1 week. The data set is classed as organism-based. The note with it: in vivo, po, 168 h.
A short description of data set [34]: Sub-acute toxicity in Kunming mouse assessed as increase in alveolar interstitial thickening administered for 14 days measured on day 14 by HE-staining based assay. The note with it: in vivo, 336 h.
Data set [35] in a line: Sub-acute toxicity in Kunming mouse assessed as increase in proximal convoluted tubule edema administered for 14 days measured on day 14 by HE-staining based assay. Particulars: in vivo, 336 h.
The nature of data set [36]: Sub-acute toxicity in Kunming mouse assessed as increase in alveolar hemorrhage administered for 14 days measured on day 14 by HE-staining based assay. Particulars: in vivo, 336 h.

For orientation: EC50 means the concentration needed to bring the measured effect to its halfway point. The term CC50 denotes the concentration at which the toxic effect on the cells reaches its halfway point. As usually defined, the IC50 is the concentration that inhibits the measured activity by half. On to `Cc1cc(C)cc(S(=O)(=O)c2c(C(=O)N[C@H]3CCN(S(C)(=O)=O)C3)[nH]c3ccc(Cl)cc23)c1`, for which the selectivity ratio in data set [1] was 7080; in [7], under 1. For the same molecule, the EC50 in data set [2] was over 29900 nM; in [5], 4.3 nM. Further, the CC50 at 120 h in [3] was 29900 nM. The figures for the “Ratio EC50” value in data set [4] and in data set [8] were 2.3 and 60, respectively. For the same molecule, the IC50 in [6] was 610 nM.
On to `Cc1cc(C)cc(S(=O)(=O)c2c(C(=O)N[C@H]3CCN(CC(N)=O)C3)[nH]c3ccc(Cl)cc23)c1`, for which the Activity entry in data set [9], in data set [10], in data set [11], in data set [13], in data set [14] and in data set [15] was “Non-Toxic” throughout. For the same molecule, the Activity result in [18], in [19], in data set [20], in [21], in [23] and in data set [25] was “Non-Toxic” in each case. The Activity result in data set [26], in data set [27], in data set [28], in [29], in data set [30] and in [32] was “Non-Toxic” each time. The Activity entry in data set [33] is recorded as “Non-Toxic”. In addition, the selectivity ratio in data set [1] is 2880; in [7] it was under 1. Besides, the EC50 was over 28100 nM in [2]; 96 nM in data set [12]; 9.8 nM in [5]; 310 nM in data set [16]; 14 nM in data set [17]; 94 nM in data set [22]. Also, the results for the EC50 in [24] and in [31] were 11 nM and 25 nM, respectively. In addition, the CC50 at 120 h in data set [3] turned out to be 28100 nM.
As for `Cc1cc(C)cc(S(=O)(=O)c2c(C(=O)N[C@@H]3CCN(S(C)(=O)=O)C3)[nH]c3ccc(Cl)cc23)c1`, the selectivity ratio is 5190 in data set [1] and 3 in data set [7]. The EC50 in [2] worked out at 7660 nM; in data set [5], 4.7 nM. In addition, in data set [3], the CC50 at 120 h stood at 24000 nM. The “Ratio EC50” value in data set [4] is listed as 2.1; in [8], 55.
For the molecule `Cc1cc(C#N)cc(C)c1Oc1nc(Nc2ccc(C#N)cc2)nc(N)c1Br` [ETRAVIRINE], the selectivity ratio in [1] was over 792; in data set [7], over 238. The EC50 in [2] was determined as 19 nM; in [12], 13 nM; in [5] it was 5.8 nM; in data set [16] it was 23 nM; in data set [17] it was 6 nM; in [22], 16 nM. In addition, the EC50 amounted to 6.2 nM in data set [24] and 2.9 nM in data set [31]. Also, the CC50 at 120 h in data set [3] was over 4610 nM. The Activity entry in data set [34], in data set [35] and in data set [36] was “Toxic” each time.
